The supplement of paper PMC10307832

Assays:
Test in all cases: relative viability (nuclei count vs DMSO), 5 days (fraction); higher = more cells survive
[1] = compound: C[C@]1(c2nc3c(C(N)=O)cccc3[nH]2)CCCN1 [Veliparib] + Nc1nc2[nH]cc(CCc3ccc(C(=O)N[C@@H](CCC(=O)O)C(=O)O)cc3)c2c(=O)[nH]1 [Pemetrexed] (partner 0.2 µM)
In short: (§1)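 Lung cancer cell lines were seeded in 1536-well plates and dosed by pin tool the next day, with either a single drug or a fixed anchor-drug dose combined with five library-drug doses (not always all listed) spaced in √10 steps. Five days later, one step fixed the cells and stained their nuclei (final 0.05% Triton X-100, 1% formaldehyde, 1 ug/ml Hoechst), and nuclei were counted on 4× images. Relative viability is the nuclei count in treated wells divided by the count in vehicle wells, and each value is the median of duplicate plates.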

[2] = compound: COC1=CC=C(C=C1)CN2C=CC3=C2C=C(C=C3)C(=O)NO + CC(=O)c1c(C)c2cnc(Nc3ccc(N4CCNCC4)cn3)nc2n(C2CCCC2)c1=O [Palbociclib] (partner 0.5 µM)
In short: as §1

[3] = compound: C[C@]1(c2nc3c(C(N)=O)cccc3[nH]2)CCCN1 [Veliparib] + Cc1nc(Nc2ncc(C(=O)Nc3c(C)cccc3Cl)s2)cc(N2CCN(CCO)CC2)n1 [Dasatinib] (partner 0.075 µM)
In short: as §1

[4] = compound: C[C@]1(c2nc3c(C(N)=O)cccc3[nH]2)CCCN1 [Veliparib] + COc1cc2c(Oc3ccc(NC(=O)C4(C(=O)Nc5ccc(F)cc5)CC4)cc3F)ccnc2cc1OCCCN1CCOCC1 [Foretinib] (partner 0.25 µM)
In short: as §1

SW 1573
relative viability ([1]; first compound 0.06325 µM): 0.721
relative viability ([1]; first compound 0.2 µM): 0.758
relative viability ([1]; first compound 0.6325 µM): 0.768
relative viability ([1]; first compound 2 µM): 0.86
relative viability ([2]; first compound 0.253 µM): 0.397
relative viability ([2]; first compound 0.8 µM): 0.474
relative viability ([2]; first compound 2.53 µM): 0.392
relative viability ([2]; first compound 8 µM): 0.326
relative viability ([3]; first compound 0.06325 µM): 0.659
relative viability ([3]; first compound 0.2 µM): 0.38
relative viability ([3]; first compound 0.6325 µM): 0.391
relative viability ([3]; first compound 2 µM): 0.439
relative viability ([4]; first compound 0.02 µM): 0.881
relative viability ([4]; first compound 0.06325 µM): 0.771
relative viability ([4]; first compound 0.2 µM): 0.99
relative viability ([4]; first compound 0.6325 µM): 0.828
relative viability ([4]; first compound 2 µM): 0.941
